Counter-ions that a name gives are not always drawn.
Key:
[1] = target: T1, S1P1 receptor (S1P1 expressing RH7777 membranes) (Homo sapiens, UniProt P21453); assay: S1P1 GTPγS assay; assay type: biochemical; conditions: tested in one of the above S1P1 assays (two GTPγS formats)
T1 construct: expressed in transfected cells; host or cells: RH7777 cells (membranes)
Summary of the method: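 Membranes from RH7777 cells expressing human S1P1 (1.5 μg/well) precoupled 30 min on ice to WGA SPA beads in 20 mM HEPES pH 7.4, 10 mM MgCl2, 100 mM NaCl, with 10 μM GDP and 90 μg/ml saponin. [35S]-GTPγS 0.5 nM final added with compound; SPA signal read immediately.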

[2] = target: T2, S1P1 (PathHunter CHO-K1 EDG1 β-Arrestin cell line) (Homo sapiens, UniProt P21453); assay: S1P-1 β-Arrestin recruitment assay; assay type: cell-based; conditions: CHO-K1 EDG1 β-Arrestin cells, chemi-luminescence
T2 construct: host or cells: PathHunter CHO-K1 EDG1 β-Arrestin cell line
T2 sequence (P21453 whole entry): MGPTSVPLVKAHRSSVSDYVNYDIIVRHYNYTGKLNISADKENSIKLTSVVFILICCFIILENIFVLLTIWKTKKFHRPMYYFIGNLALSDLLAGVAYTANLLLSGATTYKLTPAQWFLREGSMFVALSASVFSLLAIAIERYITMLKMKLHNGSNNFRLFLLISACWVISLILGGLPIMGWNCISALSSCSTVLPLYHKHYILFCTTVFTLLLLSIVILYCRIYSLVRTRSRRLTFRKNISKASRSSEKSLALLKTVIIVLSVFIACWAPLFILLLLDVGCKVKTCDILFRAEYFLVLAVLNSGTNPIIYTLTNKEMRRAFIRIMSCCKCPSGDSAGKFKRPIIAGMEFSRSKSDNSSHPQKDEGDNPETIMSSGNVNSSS
T2 sequence (P32121 whole entry partner): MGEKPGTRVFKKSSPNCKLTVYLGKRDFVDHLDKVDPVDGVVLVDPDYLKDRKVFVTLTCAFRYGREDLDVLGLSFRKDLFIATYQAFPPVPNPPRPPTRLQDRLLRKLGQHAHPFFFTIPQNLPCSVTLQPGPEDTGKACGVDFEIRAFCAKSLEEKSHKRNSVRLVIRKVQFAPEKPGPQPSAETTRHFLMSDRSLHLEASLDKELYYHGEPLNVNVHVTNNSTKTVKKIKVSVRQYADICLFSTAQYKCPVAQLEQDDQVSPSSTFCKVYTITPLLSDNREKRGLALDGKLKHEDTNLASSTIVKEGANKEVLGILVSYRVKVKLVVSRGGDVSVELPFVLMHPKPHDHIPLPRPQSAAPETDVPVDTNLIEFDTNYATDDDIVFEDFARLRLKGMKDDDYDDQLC
Summary of the method: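 CHO-K1 cells expressing S1P1 and β-arrestin 2 fused to complementing β-galactosidase fragments, at 1×10^4 cells/well in pH 7.4 buffer with 0.1% BSA. Compound exposure 90 min at 37 °C then 15 min room temperature; chemiluminescent substrate added for 60 min before luminescence read.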

T1 sequence (P21453 whole entry): as the sequence (P21453 whole entry) above

EC50 [1] | EC50 [2] | SMILES
≤ 100 nM | ≤ 10 nM | Cc1c(-c2noc(-c3ccc(OC(C)C)c(C#N)c3)n2)ccc2c1CCN(C(=O)CCCN)C2 [Example 41, 5-{3-[2-(4-Aminobutanoyl)-5-methyl-1,2,3,4-tetrahydro-6-isoquinolinyl]-1,2,4-oxadiazol-5-yl}-2-[(1-methylethyl)oxy]benzonitrile hydrochloride]
≤ 100 nM | ≤ 10 nM | CC(C)Oc1ccc(-c2nc(-c3ccc4c(c3)CCN(CCCC(=O)N(C)C)CC4)no2)cc1C#N [Example 26, 4-[7-(5-{3-Cyano-4-[(1-methylethyl)oxy]phenyl}-1,2,4-oxadiazol-3-yl)-1,2,4,5-tetrahydro-3H-3-benzazepin-3-yl]-N,N-dimethylbutanamide]
≤ 100 nM | ≤ 10 nM | N#Cc1cc(-c2nc(-c3ccc4c(c3)CCN(C(=O)CN)CC4)no2)ccc1OC(CF)CF [Example 54, 2-{[2-fluoro-1-(fluoromethyl)ethyl]oxy}-5-[3-(3-glycyl-2,3,4,5-tetrahydro-1H-3-benzazepin-7-yl)-1,2,4-oxadiazol-5-yl]benzonitrile]
≤ 100 nM | ≤ 10 nM | Cc1c(-c2noc(-c3ccc(OC(C)C)c(C#N)c3)n2)ccc2c1CCN(CC(O)CO)C2 (stereo not drawn) [Example 6, 5-{3-[2-(2,3-Dihydroxypropyl)-5-methyl-1,2,3,4-tetrahydro-6-isoquinolinyl]-1,2,4-oxadiazol-5-yl}-2-[(1-methylethyl)oxy]benzonitrile]
≤ 1000 nM | ≤ 100 nM | CC(C)Oc1ccc(-c2nnc(-c3ccc4c(c3)CCN(CCC(N)=O)C4)s2)cc1C#N [Example 47, 3-[6-(5-{3-cyano-4-[(1-methylethyl)oxy]phenyl}-1,3,4-thiadiazol-2-yl)-3,4-dihydro-2(1H)-isoquinolinyl]propanamide]
≤ 100 nM | ≤ 10 nM | Cc1c(-c2nnc(-c3ccc(OC(C)C)c(C#N)c3)s2)ccc2c1CCN(CCC(N)=O)C2 [Example 10, 3-[6-(5-{3-Cyano-4-[(1-methylethyl)oxy]phenyl}-1,3,4-thiadiazol-2-yl)-5-methyl-3,4-dihydro-2(1H)-isoquinolinyl]propanamide]
≤ 1000 nM | ≤ 100 nM | CC(C)Oc1ncc(-c2nc(-c3ccc4c(c3)CCN(C(=O)[C@@H](N)[C@@H](C)O)CC4)no2)cc1C#N [Example 77, 2-[(1-methylethyl)oxy]-5-[3-(3-L-threonyl-2,3,4,5-tetrahydro-1H-3-benzazepin-7-yl)-1,2,4-oxadiazol-5-yl]-3-pyridinecarbonitrile hydrochloride]
≤ 100 nM | ≤ 100 nM | CNCCC(=O)N1CCc2ccc(-c3noc(-c4ccc(OC(C)C)c(C#N)c4)n3)cc2CC1 [Example 67, 5-{3-[3-(N-methyl-b-alanyl)-2,3,4,5-tetrahydro-1H-3-benzazepin-7-yl]-1,2,4-oxadiazol-5-yl}-2-[(1-methylethyl)oxy]benzonitrile]
≤ 10 nM | ≤ 10 nM | CC(C)Oc1ccc(-c2nc(-c3cccc4c3CCN(C(=O)CN)C4)no2)cc1C#N [Example 87, 5-[3-(2-glycyl-1,2,3,4-tetrahydro-5-isoquinolinyl)-1,2,4-oxadiazol-5-yl]-2-[(1-methylethyl)oxy]benzonitrile hydrochloride]
≤ 10 nM | ≤ 100 nM | CCNC(=O)NCCN1CCc2ccc(-c3noc(-c4ccc(OC(C)C)c(C#N)c4)n3)cc2CC1 [Example 105, N-{2-[7-(5-{3-cyano-4-[(1-methylethyl)oxy]phenyl}-1,2,4-oxadiazol-3-yl)-1,2,4,5-tetrahydro-3H-3-benzazepin-3-yl]ethyl}-N′-ethylurea]
≤ 100 nM | ≤ 10 nM | Cc1c(-c2noc(-c3ccc(OC(C)C)c(C#N)c3)n2)ccc2c1CCN(CC(=O)N[C@@H](C)CO)CC2 [Example 158, 2-[7-(5-{3-cyano-4-[(1-methylethyl)oxy]phenyl}-1,2,4-oxadiazol-3-yl)-6-methyl-1,2,4,5-tetrahydro-3H-3-benzazepin-3-yl]-N-[(1S)-2-hydroxy-1-methylethyl]acetamide]
≤ 100 nM | ≤ 100 nM | Cc1c(-c2noc(-c3cnc(OC(C)C)c(C#N)c3)n2)ccc2c1CCN(C[C@@H](O)CO)C2 [Example 133]
≤ 100 nM | ≤ 10 nM | CC(C)Oc1ccc(-c2nc(-c3ccc4c(c3)CCN(CCCC(N)=O)CC4)no2)cc1C#N [Example 25, 4-[7-(5-{3-Cyano-4-[(1-methylethyl)oxy]phenyl}-1,2,4-oxadiazol-3-yl)-1,2,4,5-tetrahydro-3H-3-benzazepin-3-yl]butanamide]
≤ 100 nM | ≤ 10 nM | Cc1c(-c2noc(-c3ccc(OC(C)C)c(C#N)c3)n2)ccc2c1CCN(CC(=O)NC[C@H](C)O)CC2 [Example 148, 2-[7-(5-{3-cyano-4-[(1-methylethyl)oxy]phenyl}-1,2,4-oxadiazol-3-yl)-6-methyl-1,2,4,5-tetrahydro-3H-3-benzazepin-3-yl]-N-[(2S)-2-hydroxypropyl]acetamide]
≤ 100 nM | ≤ 10 nM | Cc1c(-c2noc(-c3ccc(OC(C)C)c(C#N)c3)n2)ccc2c1CCN(C(=O)CCN)C2 [Example 39, 5-[3-(2-β-Alanyl-5-methyl-1,2,3,4-tetrahydro-6-isoquinolinyl)-1,2,4-oxadiazol-5-yl]-2-[(1-methylethyl)oxy]benzonitrile hydrochloride]
≤ 10 nM | ≤ 10 nM | CC(C)Oc1ccc(-c2nc(-c3cccc4c3CCN(CC(O)CO)C4)no2)cc1C#N (stereo not drawn) [Example 76, 5-{3-[2-(2,3-dihydroxypropyl)-1,2,3,4-tetrahydro-5-isoquinolinyl]-1,2,4-oxadiazol-5-yl}-2-[(1-methylethyl)oxy]benzonitrile]
≤ 100 nM | ≤ 100 nM | CC(C)Oc1ccc(-c2nc(-c3ccc4c(c3)CCN(C(=O)[C@@](C)(N)CO)CC4)no2)cc1C#N [Example 81, 2-[(1-methylethyl)oxy]-5-{3-[3-(2-methyl-L-seryl)-2,3,4,5-tetrahydro-1H-3-benzazepin-7-yl]-1,2,4-oxadiazol-5-yl}benzonitrile]
≤ 100 nM | ≤ 10 nM | Cc1c(-c2noc(-c3ccc(OC(C)C)c(C#N)c3)n2)ccc2c1CCN(CC(=O)N1CC(O)C1)C2 [Example 123, 5-(3-{2-[2-(3-hydroxy-1-azetidinyl)-2-oxoethyl]-5-methyl-1,2,3,4-tetrahydro-6-isoquinolinyl}-1,2,4-oxadiazol-5-yl)-2-[(1-methylethyl)oxy]benzonitrile hydrochloride]
≤ 100 nM | ≤ 10 nM | CC(C)Oc1ccc(-c2nc(-c3ccc4c(c3)CCN(CC(=O)NC[C@H](C)O)CC4)no2)cc1C#N [Example 75, 2-[7-(5-{3-cyano-4-[(1-methylethyl)oxy]phenyl}-1,2,4-oxadiazol-3-yl)-1,2,4,5-tetrahydro-3H-3-benzazepin-3-yl]-N-[(2S)-2-hydroxypropyl]acetamide hydrochloride]
≤ 10 nM | ≤ 10 nM | CC(C)Oc1ccc(-c2nc(-c3ccc4c(c3)CCN(C(=O)CN)CC4)no2)cc1C#N [Example 48, 5-[3-(3-glycyl-2,3,4,5-tetrahydro-1H-3-benzazepin-7-yl)-1,2,4-oxadiazol-5-yl]-2-[(1-methylethyl)oxy]benzonitrile trifluoroacetate]
≤ 100 nM | ≤ 10 nM | Cc1c(-c2noc(-c3ccc(OC(C)C)c(C#N)c3)n2)ccc2c1CCN(CC(=O)N[C@H](C)CO)CC2 [Example 159]
> 10000 nM | ≤ 10 nM | Cc1c(-c2noc(-c3ccc(OC(C)C)c(C#N)c3)n2)ccc2c1CCN(C(=O)CNC[C@@H](C)O)C2 [Example 129, 5-[3-(2-{N-[(2R)-2-hydroxypropyl]glycyl}-5-methyl-1,2,3,4-tetrahydro-6-isoquinolinyl)-1,2,4-oxadiazol-5-yl]-2-[(1-methylethyl)oxy]benzonitrile hydrochloride]
≤ 100 nM | ≤ 10 nM | Cc1c(-c2noc(-c3ccc(OC(C)C)c(C#N)c3)n2)ccc2c1CCN(C[C@@H](O)CO)C2 [Example 73, 5-(3-{2-[(2R)-2,3-dihydroxypropyl]-5-methyl-1,2,3,4-tetrahydro-6-isoquinolinyl}-1,2,4-oxadiazol-5-yl)-2-[(1-methylethyl)oxy]benzonitrile hydrochloride]
≤ 100 nM | ≤ 10 nM | Cc1c(-c2noc(-c3ccc(OC(C)C)c(C#N)c3)n2)ccc2c1CCN(C(=O)CNCC(O)CO)CC2 (stereo not drawn) [Example 187, 5-(3-{3-[N-(2,3-dihydroxypropyl)glycyl]-6-methyl-2,3,4,5-tetrahydro-1H-3-benzazepin-7-yl}-1,2,4-oxadiazol-5-yl)-2-[(1-methylethyl)oxy]benzonitrile]
≤ 100 nM | ≤ 10 nM | CC(C)Oc1ccc(-c2nc(-c3ccc4c(c3)CCN(C(=O)CCN)CC4)no2)cc1C#N [Example 69, 5-[3-(3-β-alanyl-2,3,4,5-tetrahydro-1H-3-benzazepin-7-yl)-1,2,4-oxadiazol-5-yl]-2-[(1-methylethyl)oxy]benzonitrile]
≤ 100 nM | ≤ 10 nM | Cc1c(-c2noc(-c3ccc(OC(C)C)c(C#N)c3)n2)ccc2c1CCN(CCO)C2 [Example 7, 5-{3-[2-(2-Hydroxyethyl)-5-methyl-1,2,3,4-tetrahydro-6-isoquinolinyl]-1,2,4-oxadiazol-5-yl}-2-[(1-methylethyl)oxy]benzonitrile]
≤ 10 nM | ≤ 10 nM | CNC(=O)CCN1CCc2c(ccc(-c3noc(-c4ccc(OC(C)C)c(C#N)c4)n3)c2C)C1 [Example 43, 3-[6-(5-{3-cyano-4-[(1-methylethyl)oxy]phenyl}-1,2,4-oxadiazol-3-yl)-5-methyl-3,4-dihydro-2(1H)-isoquinolinyl]-N-methylpropanamide]
